How the values were obtained:
Adenosine receptor A2a = Adenosine receptor A2a (Homo sapiens, UniProt P29274)
[1] = target: Beta-1 adrenergic receptor (Homo sapiens, UniProt P08588); format: functional
[2] = target: Beta-2 adrenergic receptor (Homo sapiens, UniProt P07550)
[3] = target: T1, Muscarinic acetylcholine receptor M2 (Homo sapiens, UniProt P08172); format: functional, cell-based
T1 sequence (P08172 whole entry): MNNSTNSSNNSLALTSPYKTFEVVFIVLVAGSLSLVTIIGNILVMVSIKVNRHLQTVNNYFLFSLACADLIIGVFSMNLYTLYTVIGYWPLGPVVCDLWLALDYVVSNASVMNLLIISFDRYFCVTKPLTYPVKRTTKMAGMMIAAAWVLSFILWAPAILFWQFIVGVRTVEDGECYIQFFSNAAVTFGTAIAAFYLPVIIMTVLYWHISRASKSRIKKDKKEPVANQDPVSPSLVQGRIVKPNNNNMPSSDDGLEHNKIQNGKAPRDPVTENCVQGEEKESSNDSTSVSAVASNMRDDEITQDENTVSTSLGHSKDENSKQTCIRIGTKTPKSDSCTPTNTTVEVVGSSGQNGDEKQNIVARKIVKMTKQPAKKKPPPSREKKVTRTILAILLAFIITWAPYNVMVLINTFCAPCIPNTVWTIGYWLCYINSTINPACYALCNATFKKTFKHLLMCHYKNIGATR

[4] = target: Muscarinic acetylcholine receptor M3 (Homo sapiens, UniProt P20309)
Muscarinic acetylcholine receptor M3, sequence (P20309 whole entry): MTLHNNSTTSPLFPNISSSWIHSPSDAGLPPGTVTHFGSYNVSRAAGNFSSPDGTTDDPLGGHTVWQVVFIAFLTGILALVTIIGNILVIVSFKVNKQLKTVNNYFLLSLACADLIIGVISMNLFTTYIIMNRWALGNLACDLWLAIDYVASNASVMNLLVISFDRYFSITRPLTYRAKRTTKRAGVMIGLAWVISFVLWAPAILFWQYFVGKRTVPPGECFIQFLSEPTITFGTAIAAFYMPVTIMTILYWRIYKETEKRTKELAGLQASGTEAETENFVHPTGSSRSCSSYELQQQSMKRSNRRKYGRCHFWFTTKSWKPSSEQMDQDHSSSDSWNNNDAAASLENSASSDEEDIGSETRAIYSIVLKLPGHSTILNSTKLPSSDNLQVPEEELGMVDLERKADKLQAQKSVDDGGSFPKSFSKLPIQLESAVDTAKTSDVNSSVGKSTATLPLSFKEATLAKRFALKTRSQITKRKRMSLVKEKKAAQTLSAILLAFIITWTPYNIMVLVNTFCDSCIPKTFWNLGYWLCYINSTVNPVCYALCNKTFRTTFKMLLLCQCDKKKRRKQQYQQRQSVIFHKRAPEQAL

[5] = target: Neuronal acetylcholine receptor subunit alpha-4 (Homo sapiens, UniProt P43681)
Neuronal acetylcholine receptor subunit alpha-4, sequence (P43681 whole entry): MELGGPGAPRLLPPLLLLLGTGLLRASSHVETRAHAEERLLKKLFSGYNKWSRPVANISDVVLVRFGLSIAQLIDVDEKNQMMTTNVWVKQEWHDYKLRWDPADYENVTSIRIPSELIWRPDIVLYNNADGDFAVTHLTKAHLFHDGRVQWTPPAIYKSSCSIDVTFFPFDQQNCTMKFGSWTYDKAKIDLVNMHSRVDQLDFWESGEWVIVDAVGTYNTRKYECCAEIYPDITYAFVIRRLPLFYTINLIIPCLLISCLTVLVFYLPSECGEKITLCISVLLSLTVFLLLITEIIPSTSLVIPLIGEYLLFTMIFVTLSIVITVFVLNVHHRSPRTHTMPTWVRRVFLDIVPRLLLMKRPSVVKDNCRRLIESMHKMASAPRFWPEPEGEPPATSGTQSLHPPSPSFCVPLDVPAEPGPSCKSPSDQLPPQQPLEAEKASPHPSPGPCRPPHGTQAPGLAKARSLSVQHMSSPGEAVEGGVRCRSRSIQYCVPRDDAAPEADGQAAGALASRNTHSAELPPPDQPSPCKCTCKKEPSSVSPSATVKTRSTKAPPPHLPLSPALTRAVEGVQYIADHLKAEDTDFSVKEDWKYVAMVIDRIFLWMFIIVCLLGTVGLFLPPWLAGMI

Cannabinoid receptor 1 = Cannabinoid receptor 1 (Homo sapiens, UniProt P21554); format: functional, cell-based
Cannabinoid receptor 1, sequence (P21554 whole entry): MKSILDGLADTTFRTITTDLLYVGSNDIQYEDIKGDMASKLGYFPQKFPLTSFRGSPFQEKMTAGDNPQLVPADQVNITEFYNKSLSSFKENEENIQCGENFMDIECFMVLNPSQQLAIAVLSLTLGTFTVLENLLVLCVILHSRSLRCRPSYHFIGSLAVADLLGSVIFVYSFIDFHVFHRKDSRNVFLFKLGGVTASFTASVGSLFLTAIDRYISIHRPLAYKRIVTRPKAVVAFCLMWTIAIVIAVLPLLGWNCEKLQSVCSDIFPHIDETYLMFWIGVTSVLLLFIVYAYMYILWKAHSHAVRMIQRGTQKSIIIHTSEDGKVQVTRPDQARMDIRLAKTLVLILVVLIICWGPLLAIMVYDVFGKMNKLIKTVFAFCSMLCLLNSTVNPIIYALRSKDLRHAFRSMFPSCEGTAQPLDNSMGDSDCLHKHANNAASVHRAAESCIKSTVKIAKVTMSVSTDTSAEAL

[6] = target: T2, 5-hydroxytryptamine receptor 1A (Homo sapiens, UniProt P08908); format: functional, cell-based
T2 sequence (P08908 whole entry): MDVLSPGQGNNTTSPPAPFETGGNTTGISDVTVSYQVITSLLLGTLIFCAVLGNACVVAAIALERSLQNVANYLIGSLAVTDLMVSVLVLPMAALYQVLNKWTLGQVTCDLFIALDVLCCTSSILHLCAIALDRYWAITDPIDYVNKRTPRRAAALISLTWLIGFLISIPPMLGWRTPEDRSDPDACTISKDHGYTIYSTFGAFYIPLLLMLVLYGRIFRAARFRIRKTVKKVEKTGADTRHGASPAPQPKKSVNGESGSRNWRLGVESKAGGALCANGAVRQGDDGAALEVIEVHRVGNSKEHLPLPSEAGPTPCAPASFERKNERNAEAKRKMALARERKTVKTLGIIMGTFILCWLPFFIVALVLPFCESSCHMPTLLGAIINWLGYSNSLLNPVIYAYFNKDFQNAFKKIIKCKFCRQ

Progesterone receptor = target: T3, Progesterone receptor (Homo sapiens, UniProt P06401); format: functional
T3 sequence (P06401 whole entry): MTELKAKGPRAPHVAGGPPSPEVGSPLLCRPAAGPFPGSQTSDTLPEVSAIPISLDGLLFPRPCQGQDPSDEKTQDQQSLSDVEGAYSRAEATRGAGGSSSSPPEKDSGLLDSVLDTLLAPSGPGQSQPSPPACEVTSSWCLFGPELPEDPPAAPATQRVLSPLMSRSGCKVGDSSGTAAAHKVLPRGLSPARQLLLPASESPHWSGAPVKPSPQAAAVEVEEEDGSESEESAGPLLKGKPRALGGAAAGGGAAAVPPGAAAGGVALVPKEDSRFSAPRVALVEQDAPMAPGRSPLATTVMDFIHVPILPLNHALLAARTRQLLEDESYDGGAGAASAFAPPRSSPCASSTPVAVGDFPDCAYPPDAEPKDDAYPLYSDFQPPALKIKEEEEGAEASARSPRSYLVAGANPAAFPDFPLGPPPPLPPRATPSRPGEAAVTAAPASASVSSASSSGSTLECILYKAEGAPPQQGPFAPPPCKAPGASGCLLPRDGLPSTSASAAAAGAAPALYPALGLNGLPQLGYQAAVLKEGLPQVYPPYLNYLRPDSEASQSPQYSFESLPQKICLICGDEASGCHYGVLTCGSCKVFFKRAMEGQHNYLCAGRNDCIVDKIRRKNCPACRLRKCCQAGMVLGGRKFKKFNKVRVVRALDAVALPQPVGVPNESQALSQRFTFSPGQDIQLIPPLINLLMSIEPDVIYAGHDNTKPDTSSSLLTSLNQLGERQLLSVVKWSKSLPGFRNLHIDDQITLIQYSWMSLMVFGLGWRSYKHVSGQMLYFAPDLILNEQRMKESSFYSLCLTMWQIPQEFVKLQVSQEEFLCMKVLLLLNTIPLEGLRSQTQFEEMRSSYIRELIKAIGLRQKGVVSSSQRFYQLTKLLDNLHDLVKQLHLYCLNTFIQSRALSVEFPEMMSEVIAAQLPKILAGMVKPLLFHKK

[7] = target: T4, Prostaglandin G/H synthase 1 (Rattus norvegicus, UniProt Q63921); format: functional
T4 sequence (Q63921 whole entry): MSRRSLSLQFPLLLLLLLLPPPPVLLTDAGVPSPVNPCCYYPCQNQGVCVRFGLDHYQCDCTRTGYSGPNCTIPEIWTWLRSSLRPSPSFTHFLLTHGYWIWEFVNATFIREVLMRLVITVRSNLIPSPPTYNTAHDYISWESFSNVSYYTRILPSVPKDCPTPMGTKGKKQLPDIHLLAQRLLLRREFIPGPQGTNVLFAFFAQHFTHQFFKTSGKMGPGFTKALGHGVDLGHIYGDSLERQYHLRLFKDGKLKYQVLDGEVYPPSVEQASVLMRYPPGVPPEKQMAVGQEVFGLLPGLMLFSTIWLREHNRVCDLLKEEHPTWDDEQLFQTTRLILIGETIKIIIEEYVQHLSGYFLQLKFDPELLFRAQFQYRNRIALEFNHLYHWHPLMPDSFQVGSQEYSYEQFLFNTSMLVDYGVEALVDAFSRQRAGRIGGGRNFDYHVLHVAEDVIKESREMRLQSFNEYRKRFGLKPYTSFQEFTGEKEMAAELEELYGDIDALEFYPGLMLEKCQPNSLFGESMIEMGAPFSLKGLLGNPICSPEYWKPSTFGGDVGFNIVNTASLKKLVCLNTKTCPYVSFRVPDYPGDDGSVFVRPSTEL
Further: assay procedure not described here.

Adenosine receptor A2a, sequence (P29274 whole entry): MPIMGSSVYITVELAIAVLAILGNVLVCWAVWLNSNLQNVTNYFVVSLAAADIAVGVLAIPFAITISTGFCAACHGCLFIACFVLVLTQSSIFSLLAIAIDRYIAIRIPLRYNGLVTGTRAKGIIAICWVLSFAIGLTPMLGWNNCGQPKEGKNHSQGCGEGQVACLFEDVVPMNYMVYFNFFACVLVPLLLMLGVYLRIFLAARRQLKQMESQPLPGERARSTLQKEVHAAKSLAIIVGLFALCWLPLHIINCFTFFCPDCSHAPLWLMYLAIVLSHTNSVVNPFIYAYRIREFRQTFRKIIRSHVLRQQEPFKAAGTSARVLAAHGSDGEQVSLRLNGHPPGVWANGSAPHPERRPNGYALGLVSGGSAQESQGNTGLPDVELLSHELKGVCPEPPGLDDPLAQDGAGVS
Beta-1 adrenergic receptor, sequence (P08588 whole entry): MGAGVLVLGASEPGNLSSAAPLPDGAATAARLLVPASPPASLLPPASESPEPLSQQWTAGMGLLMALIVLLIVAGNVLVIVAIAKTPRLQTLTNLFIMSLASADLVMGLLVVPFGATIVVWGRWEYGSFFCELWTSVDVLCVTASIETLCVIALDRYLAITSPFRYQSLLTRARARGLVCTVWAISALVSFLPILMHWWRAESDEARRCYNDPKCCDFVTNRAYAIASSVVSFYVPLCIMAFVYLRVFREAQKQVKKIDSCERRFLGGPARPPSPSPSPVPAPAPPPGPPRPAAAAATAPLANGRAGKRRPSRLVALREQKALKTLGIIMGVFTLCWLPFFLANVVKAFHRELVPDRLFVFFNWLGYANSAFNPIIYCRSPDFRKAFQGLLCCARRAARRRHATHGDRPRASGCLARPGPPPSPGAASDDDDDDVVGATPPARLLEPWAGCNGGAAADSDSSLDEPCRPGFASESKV
Beta-2 adrenergic receptor, sequence (P07550 whole entry): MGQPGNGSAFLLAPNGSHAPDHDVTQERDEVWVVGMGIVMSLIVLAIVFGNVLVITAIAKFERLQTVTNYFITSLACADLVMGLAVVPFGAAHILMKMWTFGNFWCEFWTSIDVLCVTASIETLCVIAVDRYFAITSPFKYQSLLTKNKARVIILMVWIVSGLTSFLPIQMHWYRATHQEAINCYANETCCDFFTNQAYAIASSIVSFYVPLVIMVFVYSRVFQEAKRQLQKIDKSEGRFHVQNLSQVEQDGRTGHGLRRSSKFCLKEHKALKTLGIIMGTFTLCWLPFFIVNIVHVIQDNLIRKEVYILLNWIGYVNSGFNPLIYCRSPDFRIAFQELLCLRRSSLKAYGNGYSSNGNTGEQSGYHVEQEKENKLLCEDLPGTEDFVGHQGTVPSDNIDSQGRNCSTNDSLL

Structure (SMILES) | AC50 (Adenosine receptor A2a) [µM] | AC50 [1] [µM] | AC50 [2] [µM] | AC50 [3] [µM] | AC50 [4] [µM] | AC50 [5] [µM] | AC50 (Cannabinoid receptor 1) [µM] | AC50 [6] [µM] | AC50 (Progesterone receptor) [µM] | AC50 [7] [µM]
O=C(CCCN1CCC(n2c(O)nc3ccccc32)CC1)c1ccc(F)cc1 [BENPERIDOL] | > 30 | 8.5 | 8.6 | > 30 | 12 | > 30 | > 30 | 0.166 | 29 | > 30
CC(=O)Nc1c(I)c(C(=O)N[C@H]2C(O)O[C@H](CO)[C@@H](O)[C@@H]2O)c(I)c(N(C)C(C)=O)c1I (stereo not given in full) [METRIZAMIDE] | > 10 | > 10 | > 10 | > 10 | > 30 | > 10 | > 30 | > 10 | > 10 | > 10
CC[N+]1(C)CCCC(OC(=O)C(O)(c2ccccc2)c2ccccc2)C1 (stereo not given) [PIPENZOLATE] | > 30 | > 30 | > 30 | > 30 | 0.019 | > 30 | > 30 | > 30 | > 30 | > 30
